Assay results taken from PubChem BioAssay (NCI).
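Grown in 96-well plates, cells were treated for 48 hours with each compound at five concentrations. Insufficient inhibition: endpoint recorded as highest concentration tested. GI50 is the concentration that inhibits growth by half. TGI is the concentration that stops growth completely.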

Experiments:
Assay in all cases: NCI tumour cell line growth inhibition, 48 h
NCI-H226 lung = system: NCI-H226 lung
NCI-H23 lung = system: NCI-H23 lung
NCI-H460 lung = system: NCI-H460 lung
NCI-H522 lung = system: NCI-H522 lung
NCI/ADR-RES ovarian = system: NCI/ADR-RES ovarian
OVCAR-3 ovarian = system: OVCAR-3 ovarian
OVCAR-4 ovarian = system: OVCAR-4 ovarian
OVCAR-5 ovarian = system: OVCAR-5 ovarian
OVCAR-8 ovarian = system: OVCAR-8 ovarian
PC-3 prostate = system: PC-3 prostate
RPMI-8226 leukemia = system: RPMI-8226 leukemia
RXF 393 renal = system: RXF 393 renal
SF-268 CNS = system: SF-268 CNS
SF-295 CNS = system: SF-295 CNS
SF-539 CNS = system: SF-539 CNS
SK-MEL-2 melanoma = system: SK-MEL-2 melanoma
SK-MEL-28 melanoma = system: SK-MEL-28 melanoma
SK-MEL-5 melanoma = system: SK-MEL-5 melanoma
SK-OV-3 ovarian = system: SK-OV-3 ovarian
SN12C renal = system: SN12C renal
SNB-19 CNS = system: SNB-19 CNS
SNB-75 CNS = system: SNB-75 CNS
SR leukemia = system: SR leukemia
SW-620 colon = system: SW-620 colon
T-47D breast = system: T-47D breast
TK-10 renal = system: TK-10 renal
U251 CNS = system: U251 CNS
UACC-257 melanoma = system: UACC-257 melanoma
UACC-62 melanoma = system: UACC-62 melanoma
UO-31 renal = system: UO-31 renal

Work on `CCCn1c(=O)c2[nH]c(-c3ccc(OCc4nc5ccc(F)cc5[nH]4)cc3)nc2n(CCC)c1=O` yielded a TGI (NCI-H226 lung) of 36.9 µM, a GI50 (NCI-H23 lung) of 21 µM and a TGI (NCI-H23 lung) of over 100 µM. The GI50 (NCI-H460 lung) was 11.1 µM, the TGI (NCI-H460 lung) was 32.3 µM and the GI50 (NCI-H522 lung) was 8.29 µM. For the same compound, the TGI (NCI-H522 lung) was over 100 µM, the GI50 (NCI/ADR-RES ovarian) was 30.4 µM and the TGI (NCI/ADR-RES ovarian) was over 100 µM. The GI50 (OVCAR-3 ovarian) was 15.1 µM, the TGI (OVCAR-3 ovarian) was 67 µM and the GI50 (OVCAR-4 ovarian) was 4.24 µM. For the same compound, the TGI (OVCAR-4 ovarian) was over 100 µM, the GI50 (OVCAR-5 ovarian) was over 100 µM and the TGI (OVCAR-5 ovarian) was over 100 µM. The GI50 (OVCAR-8 ovarian) was 6.34 µM, the TGI (OVCAR-8 ovarian) was 34 µM and the GI50 (PC-3 prostate) was 5.96 µM. The TGI (PC-3 prostate) was over 100 µM, the GI50 (RPMI-8226 leukemia) was 5.14 µM and the TGI (RPMI-8226 leukemia) was over 100 µM. It also gave a GI50 (RXF 393 renal) of 2.76 µM, a TGI (RXF 393 renal) of 11.3 µM and a GI50 (SF-268 CNS) of 25 µM. The TGI (SF-268 CNS) was over 100 µM, the GI50 (SF-295 CNS) was 4.64 µM and the TGI (SF-295 CNS) was 65.6 µM. The GI50 (SF-539 CNS) was 12.2 µM, the TGI (SF-539 CNS) was 27.7 µM and the GI50 (SK-MEL-2 melanoma) was over 100 µM. The TGI (SK-MEL-2 melanoma) was over 100 µM, the GI50 (SK-MEL-28 melanoma) was 28.1 µM and the TGI (SK-MEL-28 melanoma) was over 100 µM. The GI50 (SK-MEL-5 melanoma) was 8.5 µM, the TGI (SK-MEL-5 melanoma) was 33.3 µM and the GI50 (SK-OV-3 ovarian) was 21 µM. It also gave a TGI (SK-OV-3 ovarian) of over 100 µM, a GI50 (SN12C renal) of 16.5 µM and a TGI (SN12C renal) of over 100 µM. The GI50 (SNB-19 CNS) was over 100 µM, the TGI (SNB-19 CNS) was over 100 µM and the GI50 (SNB-75 CNS) was 2.48 µM. For the same compound, the TGI (SNB-75 CNS) was 20.2 µM, the GI50 (SR leukemia) was 22.3 µM and the TGI (SR leukemia) was over 100 µM. The GI50 (SW-620 colon) was 37.2 µM, the TGI (SW-620 colon) was over 100 µM and the GI50 (T-47D breast) was 4.4 µM. It also gave a TGI (T-47D breast) of 50.4 µM, a GI50 (TK-10 renal) of 24.4 µM and a TGI (TK-10 renal) of over 100 µM. For the same compound, the GI50 (U251 CNS) was 17.3 µM, the TGI (U251 CNS) was over 100 µM and the GI50 (UACC-257 melanoma) was 30.4 µM. The TGI (UACC-257 melanoma) was over 100 µM, the GI50 (UACC-62 melanoma) was 12.3 µM and the TGI (UACC-62 melanoma) was over 100 µM. The GI50 (UO-31 renal) was 9.09 µM and the TGI (UO-31 renal) was 29 µM.
